Experimental data published in paper PMC8296985, “A Covalent Calmodulin Inhibitor as a Tool to Study Cellular Mechanisms of K-Ras-Driven Stemness” (Frontiers in Cell and Developmental Biology, 2021).
Where “and” joins values, the source holds several entries; their conditions need not be identical. Equal values may be shown once. Read-outs that look alike come from different tables or passages of the source.

Tests used:
Format in all cases: cell-based
Hs 578T = experiment: 3D spheroid (tumorosphere) formation assay, low attachment, serum-free, alamarBlue; details: Homo sapiens
Method: (§1) 3D spheroid formation assays were performed in 96-well low-attachment, suspension culture plates (cat. no. 655185, Cellstar, Greiner Bio-One) under serum-free condition. About 1,000 (MDA-MB-231, NCI-H358, and MIA PaCa-2) or 2,500 (Hs 578T) cells per well were seeded in 50 μl of either an RPMI medium (cat. no. 52400-025, Gibco, Thermo Fisher Scientific) (MDA-MB-231, A375, and NCI-H358) or DMEM (cat. no. 41965-039, Gibco, Thermo Fisher Scientific) (Hs 578T and MIA PaCa-2), containing 0.5% MethoCult (cat. no. SF H4636, Stemcell technologies), 1x B27 (cat. no. 17504044, Gibco, Thermo Fisher Scientific), 25 ng/ml EGF (cat. no. E9644, Sigma-Aldrich), and 25 ng/ml FGF (cat. no. RP-8628, Thermo Fisher Scientific). Cells were cultured for 3 days and then treated with compounds or vehicle control (DMSO 0.1% v/v in growth medium) for another 3 days. The cells were supplemented with a fresh growth medium on the third day together with the drug treatment. For knockdown experiments, cells were seeded in 12-well plates and treated with either 50 nM scrambled siRNA (cat. no. 1022076, QIAGEN) or indicated concentrations of siRNAs. Next day, cells were collected by trypsinization and re-plated into 96-well plates for 3D spheroid suspension culture.
(§2) Spheroid formation efficiency was analyzed by an alamarBlue assay reagent (cat. no. DAL1100, Thermo Fisher Scientific). A 10% final volume of the alamarBlue reagent was added to each well of the plate and incubated for 4 h at 37°C. Then the fluorescence intensity was measured using the FLUOstar OPTIMA plate reader (BMG Labtech, Germany) with an excitation wavelength of 560 ± 5 nm and an emission wavelength of 590 ± 5 nm.
(§3) To quantitatively profile the drug sensitivity with a more robust parameter than the IC50 or EC50 values, the drug sensitivity score (DSS) analysis was employed. DSS values are essentially normalized area under the curve (AUC) measures of dose-response inhibition data ([Yadav et al., 2014]). Drug response data files (in Excel) ready for online analysis were prepared according to the example file obtained from the DSS pipeline website, called Breeze^1 ([Potdar et al., 2020]). Either raw fluorescence intensity measurements or normalized % inhibition data (for BRET assay analysis) were uploaded.
(§4) DSS3 was employed to emphasize drugs that obtain their response area over a relatively wide dose window, as compared to drugs that show increased response only at the higher end of the concentration range. After logistic fitting of the dose-response inhibition data, the area under the curve (AUC) was determined as the exact solution. A 10% minimal activity threshold (t) was set. The maximum (Cmax) and minimum (Cmin) concentrations were used for screening of the inhibitors, with Cmax = x2 and x1 concentration with minimal activity t.

MDA-MB-231 = experiment: as above; details: for IC50: Homo sapiens; for KRAS/HRAS mutant cell line DSS3 ratio: MDA-MB-231 vs Hs 578T 3D spheroid formation, 0.6–40 μM, numbers above bars Fig. 1A,B
Method: as §1, §2, §3, §4

[1] = tested on: NCI-H358, MIA PaCa-2, MDA-MB-231 and A375 3D spheroids; experiment: 3D spheroid growth benchmarking, DSS3, alamarBlue
Method: as §1, §2, §3, §4

[2] = tested on: HRAS mutant cells (Hs 578T, T24); experiment: 2D viability assay (alamarBlue), DSS3; details: relative to OphA; listed as Calmirasone1
Method: as §3
as §4, with “activity t. […]” for “activity t.”

HeLa cells = experiment: Centrosome number / multipolar phenotype in synchronized HeLa cells expressing mCherry-CaM; details: 2 h; calmidazolium 20 μM, 1 50 μM, with MG132 10 μM
Method: To evaluate the effect of compounds on centrosome numbers during mitosis, HeLa cells were seeded in 6-well plates onto sterile coverslips and cotransfected with 0.5 μg of pmCherry-CaM and 1.5 μg pEGFP-Centrin1 plasmids using 4 μl of jetPRIME. Twenty-four hours after the transfection, cells were synchronized with 60 ng/ml of nocodazole for 16 h. After the removal of nocodazole, the cells were treated with the […] MG132 (10 μM) to block the cells in metaphase and either calmidazolium (20 μM), 1 (50 μM), or DMSO (0.5%) for 2 h. Cells were then fixed with 4% paraformaldehyde in PBS for 10 min at ambient temperature. After washing with PBS-Tween 0.05%, DNA was stained with a 1 μg/ml solution of DAPI diluted in PBS for 10 min. Coverslips were mounted on glass slides using Vectashield, and images were captured on a spinning disk confocal microscope. Images were analyzed with the ImageJ software, and the number of transfected mitotic cells with multipolar and normal bipolar phenotypes was counted (between 35 and 70 cells per test condition). The percentage multipolar vs. bipolar cells was computed to generate the plot using the Prism software.

[3] = 72 h, Hs 578T (H-RasG12D) 3D tumorosphere, 3 days treatment, read-out: IC50
[4] = Hs 578T 3D tumorosphere, log scale, read-out: logIC50 ± SD (converted)
[5] = 72 h, MDA-MB-231 (K-RasG13D) 3D tumorosphere, 3 days treatment, read-out: IC50
[6] = MDA-MB-231 3D tumorosphere, log scale, read-out: logIC50 ± SD (converted)

Compound | IC50 (Hs 578T; [3]) | IC50 (Hs 578T; [4]) | IC50 (MDA-MB-231; [5]) | IC50 (MDA-MB-231; [6]) | KRAS/HRAS mutant cell line DSS3 ratio (MDA-MB-231) | DSS3 potency relative to K-RasG12C inhibitor AMG-510 in 3D spheroid assays ([1]; relative to AMG-510) | effect on 3D spheroid growth ([1]; spheroids grown 72 h then treated 72 h) | lower unspecific toxic effect on HRAS mutant cells as compared to OphA [2] | multipolar phenotype (multiple mCherry-CaM-positive centrosomes) (HeLa cells)
CC(C)=C[C@H]1C[C@H](C)[C@]2(CC[C@]3(C)C[C@H]4[C@H](C(=O)C[C@@]4(C)O)/C(C=O)=C\C[C@H]32)O1 [OphA, Ophiobolin A, reference compound] | 1.8 µM | 1.78 µM | 0.3 µM | 0.288 µM | 3.1 | – | – | – | –
CC(C)c1ccc2cc(C(F)(F)F)c(=O)c3c(N4CCCCC4)c(C=O)c(c1)c23 [Compound 1] | 22.5 µM | 22.4 µM | 12 µM | 12 µM | 4.1 | ~50% | visibly lower activity | > 40 fold and 40–260 fold | significantly pronounced
